Structures can show the parent of a compound that is named as a salt.
Experiments:
[1] = tested on: MOLM14 cells; test: Proliferation assay (spheroid growth, 8 days), MOLM14; type: cell-based, human; conditions: Homo sapiens, MOLM-14, […], MOLM14, 8 days; read-out: spheroid assay_OneTime MOLM14 IC50;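 also: spheroid size read as confluence by live-cell imaging, compounds added at a range of concentrations with 0.3% DMSO, DMSO-treated wells = 0%, highest reference dose = low control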
[2] = tested on: OCI-AML3 cells; test: Proliferation assay (spheroid growth, 8 days), OCI-AML3; type: cell-based, human; conditions: Homo sapiens, OCI-AML-3, […], OCI-AML3, 8 days
Outline: (§1)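 8-day spheroid growth in ultra-low attachment plates; seeding 200 cells (MOLM14, OCI-AML3) or 300 (KO-52); DMSO 0.3%. Day-8 imaging, confluence vs DMSO (0%) and top reference dose (baseline); IC50 by variable-slope fit.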

[3] = biological target: menin/MLL (terbium chelate-labeled menin, FITC-MBM1 peptide) (Homo sapiens (Human), UniProt O00255); test: Menin/MLL homogenous time-resolved fluorescence (HTRF) assay; type: binding; conditions: HTRF-30 min incubation IC50, 30 min incubation;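 also: IC50 from percent inhibition of HTRF signal, normalized between wells without competitor and wells with a saturating competitor that displaces FITC-MBM1 from His-tagged menin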
[4] = tested on: KO-52 cells; test: Proliferation assay (spheroid growth, 8 days), KO-52 control cell line; type: cell-based, human; conditions: Homo sapiens, […], read-out: spheroid assay_OneTime KO-52 IC50
Outline: as §1

[5] = tested on: MEIS1 mRNA; test: MEIS1 mRNA expression assay (Quantigene Singleplex) in MOLM14 cells; type: cell-based, human; conditions: Homo sapiens, MOLM-14, 48 h, 48 hours incubation;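 also: MEIS1 transcript levels read by probe hybridization and normalized to RPL28 mRNA, with IC50 fitted to fold changes across a rising compound concentration series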

Sequence of menin/MLL (terbium chelate-labeled menin, FITC-MBM1 peptide) (O00255 other isoform, or with tags, fused parts or gaps): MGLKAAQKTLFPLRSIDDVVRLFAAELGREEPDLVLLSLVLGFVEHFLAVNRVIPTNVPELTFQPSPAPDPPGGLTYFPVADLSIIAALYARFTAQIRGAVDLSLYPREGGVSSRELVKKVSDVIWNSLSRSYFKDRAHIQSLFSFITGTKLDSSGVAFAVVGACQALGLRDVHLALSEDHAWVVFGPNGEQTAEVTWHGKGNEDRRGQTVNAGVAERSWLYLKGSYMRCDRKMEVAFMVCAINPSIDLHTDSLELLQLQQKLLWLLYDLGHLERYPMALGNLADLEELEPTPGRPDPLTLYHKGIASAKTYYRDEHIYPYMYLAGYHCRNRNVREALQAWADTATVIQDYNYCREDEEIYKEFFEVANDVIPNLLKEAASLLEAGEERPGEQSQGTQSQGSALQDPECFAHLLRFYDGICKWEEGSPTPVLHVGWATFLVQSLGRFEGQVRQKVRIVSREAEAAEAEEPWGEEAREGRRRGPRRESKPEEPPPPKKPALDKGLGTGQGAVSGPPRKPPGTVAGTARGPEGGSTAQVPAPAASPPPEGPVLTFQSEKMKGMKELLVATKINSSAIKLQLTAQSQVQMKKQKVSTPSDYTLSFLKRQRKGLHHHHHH

| IC50 [1] [nM] | IC50 [2] [nM] | IC50 [3] [nM] | IC50 [5] [nM] | Structure (SMILES) | IC50 [4] [nM] |
| --- | --- | --- | --- | --- | --- |
| 110 | 170 | 0.49 | 62 | CCN(C(=O)c1cc(F)ccc1Oc1nncnc1N1CCC2(C1)CN([C@H](C[C@@H](O)CN(C)C(C)C)C(C)C)C2)C(C)C (single isomer, unassigned) [Compound 323, N-ethyl-5-fluoro-2-((5-(2-((3*R,5*R)-5-hydroxy-6-(isopropyl(methyl)amino)-2-methylhexan-3-yl)-2,6-diazaspiro[3.4]octan-6-yl)-1,2,4-triazin-6-yl)oxy)-N-isopropylbenzamide fumarate] | 13400 |
| 29 | 43 | 0.21 | 35 | CC(C)[C@@H](CCCN(C)C[C@H](C)C(N)=O)N1CC2(CCN(c3ncnnc3Oc3ccc(F)cc3C(=O)N(C(C)C)C(C)C)C2)C1 (single isomer, unassigned) [Compound 205, 2-((5-(2-((*R)-6-(((S)-3-amino-2-methyl-3-oxopropyl)(methyl)amino)-2-methylhexan-3-yl)-2,6-diazaspiro[3.4]octan-6-yl)-1,2,4-triazin-6-yl)oxy)-5-fluoro-N,N-diisopropylbenzamide fumarate] | > 15000 |
| 220 | 410 | 0.18 | 91 | CCN(C(=O)c1cc(F)ccc1Oc1nncnc1N1CCC2(C1)CN([C@H](CCCN(C)C[C@@H](C)OC)C(C)C)C2)C(C)C (single isomer, unassigned) [Compound 250, N-ethyl-5-fluoro-N-isopropyl-2-((5-(2-((R)-6-(((*R)-2-methoxypropyl)(methyl)amino)-2-methylhexan-3-yl)-2,6-diazaspiro[3.4]octan-6-yl)-1,2,4-triazin-6-yl)oxy)benzamide oxalate] | 7050 |
| > 940 | 3550 | 3.98 | > 1000 | CCN(C(=O)c1cc(F)ccc1Oc1nncnc1N1CCC2(C1)CN([C@@H](CCCN(C)C(C)C)C(C)C)C2)C(C)C (single isomer, unassigned) [Compound 123, (*S)—N-ethyl-5-fluoro-N-isopropyl-2-((5-(2-(6-(isopropyl(methyl)amino)-2-methylhexan-3-yl)-2,6-diazaspiro[3.4]octan-6-yl)-1,2,4-triazin-6-yl)oxy)benzamide fumarate] | > 15000 |
| 25 | 41 | 0.1 | 37 | CCN(C(=O)c1cc(F)ccc1Oc1nncnc1N1CCC2(C1)CN([C@H](CCCN(C)CC(CO)OC)C(C)C)C2)C(C)C (stereo partly drawn) [Compound 170, N-ethyl-5-fluoro-2-((5-(2-((3R)-6-((3-hydroxy-2-methoxypropyl)(methyl)amino)-2-methylhexan-3-yl)-2,6-diazaspiro[3.4]octan-6-yl)-1,2,4-triazin-6-yl)oxy)-N-isopropylbenzamide fumarate] | > 15000 |
| 140 | 1290 | 0.51 | 260 | CC(C)C(CCCN(C)C)N1CC2(CCN(c3ccnnc3Oc3ccc(F)cc3C(=O)N(C(C)C)C(C)C)C2)C1 (stereo not shown) [Compound 74, 2-((4-(2-(6-(dimethylamino)-2-methylhexan-3-yl)-2,6-diazaspiro[3.4]octan-6-yl)pyridazin-3-yl)oxy)-5-fluoro-N,N-diisopropylbenzamide] | 10600 |

Second part, the molecule before the results:

| Structure (SMILES) | IC50 [1] [nM] | IC50 [2] [nM] | IC50 [3] [nM] | IC50 [5] [nM] | IC50 [4] [nM] |
| --- | --- | --- | --- | --- | --- |
| CCN(C(=O)c1cc(F)ccc1Oc1nncnc1N1CCC2(C1)CN([C@H](CCCN(C)[C@H](C)COC)C(C)C)C2)C(C)C [Compound 154, N-ethyl-5-fluoro-N-isopropyl-2-((5-(2-((R)-6-(((R)-1-methoxypropan-2-yl)(methyl)amino)-2-methylhexan-3-yl)-2,6-diazaspiro[3.4]octan-6-yl)-1,2,4-triazin-6-yl)oxy)benzamide fumarate] | 22 | 67 | 0.051 | 27 | > 15000 |
| CCN(C(=O)c1cc(F)ccc1Oc1nncnc1N1CCC2(C1)CN([C@H](CCCN(C)CC(OC)OC)C(C)C)C2)C(C)C [Compound 150, (R)-2-((5-(2-(6-((2,2-dimethoxyethyl)(methyl)amino)-2-methylhexan-3-yl)-2,6-diazaspiro[3.4]octan-6-yl)-1,2,4-triazin-6-yl)oxy)-N-ethyl-5-fluoro-N-isopropylbenzamide fumarate] | 14 | 160 | 0.26 | 13 | 8700 |
| CCN(C(=O)c1cc(F)ccc1Oc1nncnc1N1CCC2(C1)CN([C@H](CN)C(C)C)C2)C(C)C (single isomer, unassigned) [Compound 24, (*S)-2-((5-(2-(1-amino-3-methylbutan-2-yl)-2,6-diazaspiro[3.4]octan-6-yl)-1,2,4-triazin-6-yl)oxy)-N-ethyl-5-fluoro-N-isopropylbenzamide] | 690 | 2680 | 0.97 | ~840 | > 15000 |
| CCN(C(=O)c1cc(F)ccc1Oc1nncnc1N1CCC2(C1)CN([C@H](CCNCC(N)=O)C(C)C)C2)C(C)C (single isomer, unassigned) [Compound 230, (*R)-2-((5-(2-(1-((2-amino-2-oxoethyl)amino)-4-methylpentan-3-yl)-2,6-diazaspiro[3.4]octan-6-yl)-1,2,4-triazin-6-yl)oxy)-N-ethyl-5-fluoro-N-isopropylbenzamide] | > 940 | 1160 | ~0.88 | ~940 | > 15000 |
| CCCN(C)CCC[C@@H](C(C)C)N1CC2(CCN(c3ncnnc3Oc3ccc(F)cc3C(=O)N(CC)C(C)C)C2)C1 (single isomer, unassigned) [Compound 128, (*S)—N-ethyl-5-fluoro-N-isopropyl-2-((5-(2-(2-methyl-6-(methyl(propyl)amino)hexan-3-yl)-2,6-diazaspiro[3.4]octan-6-yl)-1,2,4-triazin-6-yl)oxy)benzamide fumarate] | 630 | 1990 | 1.64 | ~680 | 11400 |
| CCNCC[C@H](C(C)C)N1CC2(CCN(c3ncnnc3Oc3ccc(F)cc3C(=O)N(CC)C(C)C)C2)C1 (single isomer, unassigned) [Compound 272, (*R)—N-ethyl-2-((5-(2-(1-(ethylamino)-4-methylpentan-3-yl)-2,6-diazaspiro[3.4]octan-6-yl)-1,2,4-triazin-6-yl)oxy)-5-fluoro-N-isopropylbenzamide formate] | 130 | 440 | 0.58 | 170 | > 15000 |
| CCN(C(=O)c1cc(F)ccc1Oc1nncnc1N1CCC2(C1)CN(C(CCCN)C(C)C)C2)C(C)C (stereo not shown) [Compound 3, 2-((5-(2-(6-amino-2-methylhexan-3-yl)-2,6-diazaspiro[3.4]octan-6-yl)-1,2,4-triazin-6-yl)oxy)-N-ethyl-5-fluoro-N-isopropylbenzamide formate] | 42 | 310 | 0.1 | 95 | > 15000 |
| CCN(C(=O)c1cc(F)ccc1Oc1nncnc1N1CCC2(C1)CN([C@H](CCN(C)CCCOC)C(C)C)C2)C(C)C (single isomer, unassigned) [Compound 275, (*R)—N-ethyl-5-fluoro-N-isopropyl-2-((5-(2-(1-((3-methoxypropyl)(methyl)amino)-4-methylpentan-3-yl)-2,6-diazaspiro[3.4]octan-6-yl)-1,2,4-triazin-6-yl)oxy)benzamide] | 78 | 330 | 0.66 | 100 | > 15000 |
| COCCN(C)CCC[C@@H](C(C)C)N1CC2(CCN(c3ncnnc3Oc3ccc(F)cc3C(=O)N(C(C)C)C(C)C)C2)C1 (single isomer, unassigned) [Compound 95, (*S)-5-fluoro-N,N-isopropyl-2-((5-(2-(6-((2-methoxyethyl)(methyl)amino)-methylhexan-3-yl)-2,6-diazaspiro[3.4]octan-6-yl)-1,2,4-triazin-6-yl)oxy)benzamide oxalate] | 390 | 1620 | 4.98 | ~620 | > 15000 |
| CCN(C(=O)c1cc(F)ccc1Oc1nncnc1N1CCC2(C1)CN([C@H](CCCN(C)CC(C)(C)O)C(C)C)C2)C(C)C [Compound 140, (R)-N-ethyl-5-fluoro-2-((5-(2-(6-((2-hydroxy-2-methylpropyl)(methyl)amino)-2-methylhexan-3-yl)-2,6-diazaspiro[3.4]octan-6-yl)-1,2,4-triazin-6-yl)oxy)-N-isopropylbenzamide fumarate] | 110 | 330 | 0.093 | 28 | 5750 |
| CCN(C(=O)c1cc(F)ccc1Oc1nncnc1N1CCC2(C1)CN([C@H](CCCN(C)C[C@@H](C)C(=O)NC)C(C)C)C2)C(C)C [Compound 195, N-ethyl-5-fluoro-N-isopropyl-2-((5-(2-((R)-2-methyl-6-(methyl((R)-2-methyl-3-(methylamino)-3-oxopropyl)amino)hexan-3-yl)-2,6-diazaspiro[3.4]octan-6-yl)-1,2,4-triazin-6-yl)oxy)benzamide fumarate] | 70 | 58 | ~0.4 | 56 | > 15000 |

From US12473295B2, “Substituted straight chain spiro derivatives” (Janssen Pharmaceutica NV, priority 2019, dated 2025)
